Read-outs that look alike come from different tables or passages of the source.
Assays:
[1] = test system: differentiated intestinal stem cells; assay: Insulin-GFP reporter expression (FACS) in differentiated intestinal stem cells; format: cell-based, mouse; conditions: for percentage of Insulin-GFP+ cells: further addition to 616452, day 5
Source text: “Insulin Activity Assay” as used herein is an assay used to determine the extent to which insulin gene transcription, translation or insulin release has been activated in a cell population. In an exemplary Insulin Activity Assay, the initial cells are isolated from the intestine of an Insulin-GFP mouse such as […] mouse (also referred to as the MIT-GFP mouse, Jackson lab stock no.: 006864). Intestinal crypts are isolated from the proximal half of the intestine. […] The cells are then passaged for 1-2 times to create a starting cell population for the assay. To test the capacity of agents to activate insulin gene transcription, translation or insulin release, the cells are incubated with appropriate culture media (e.g. aforementioned crypt culture media), growth factors and/or other agents being tested. Appropriate culture media, including crypt culture media as well as the agents being assessed, are added into each well and incubated with the cells for a period of 2-10 days with media change every 2 days. The fraction of insulin-GFP positive cells (i.e., cells in which the insulin-GFP reporter is activated) can be quantified using a flow cytometer to measure the fraction of GFP+ cell population present in the total cell population. Also, the average insulin activity of a cell population can be measured by measuring the average mRNA expression level of insulin of the population normalized using suitable references or housekeeping genes (e.g., using mRNA expression of Hprt as a baseline).

[2] = test system: differentiated cell colonies
[3] = test system: gastrointestinal stem cells; assay: Insulin / Nkx6.1 mRNA expression (qPCR), 3-stage conversion to insulin producing cells; format: cell-based, mouse
Source text: “mRNA Insulin Expression Assay” refers to an assay used to determine the relative insulin mRNA expression level of a cell population. For example, the assay can determine the insulin mRNA level expressed in a cell population treated to increase the expression of insulin in the cells, as compared to an untreated population of cells. In an exemplary mRNA Insulin Expression Assay, the cells were collected and the RNA is extracted from the cells using an RNA extraction kit (such as RNeasy Mini kit, Qiagen). The insulin expression level is then assessed by Quantitative real-time PCR using a one-step qPCR kit (such as QuantiTech Probe PCR kit, Qiagen) and Ins1 or Ins2 primers and probes (such as the commercially available TaqMan probe for mouse Ins1 and Ins2, Life Technologies). The relative insulin mRNA expression can be determined relative to a baseline or other marker, such as Hprt mRNA expression level or other baseline marker.
(§1) Organoids or differentiated cells were harvested and RNA was extracted using RNeasy Micro Kit (Qiagen) according to the manufacturer's instruction. Quantitative real-time PCR was performed with QuantiTect Probe PCR kit (Qiagen) using commercially available primers and TaqMan probes (Life Technologies).
Based on the protocol to convert gastrointestinal stem cells into insulin producing cells, a 3-stage process was developed, specifically, Day 0-1 as Stage 1, Day 1-3 as Stage 2, Day 3-5 as Stage 3. After Stage 3, the cells turn on significant level of Insulin expression as indicated by Ins-EGFP expression and qPCR for Insulin mRNA expression. Optionally, the cells can be further cultured for 1-2 weeks, as Stage 4. For each stage, a set of specific combination of small molecules (and/or growth factors) were added. The objective was to optimize the reprogramming protocol to increase insulin expression, specifically Insulin mRNA expression for each stage, by screening and testing new small molecules (or growth factors).

intestinal stem cells = assay: mRNA expression (qPCR) of ChgA and other lineage markers in differentiated intestinal stem cells; format: cell-based, mouse; conditions: for differentiation towards EEC (ChgA expression): added to Notch and EGFR/MEK/ERK inhibition combination without R-Spondin1; for ChgA expression of the differentiated cells: versus previous differentiation conditions (FIG. 21)
Source text: “mRNA ChgA Expression Assay” refers to an assay used to determine the relative ChgA mRNA expression level in a cell population. For example, the assay can determine ChgA mRNA expression level of a differentiated cell population following treatment with agents being tested, as compared to an untested population of post-natal stem cells. In an example of an mRNA ChgA Expression Assay, the cells were collected and the RNA is extracted from the cells using an RNA extraction kit (such as RNeasy Mini kit, Qiagen). The ChgA expression level is then assessed by Quantitative real-time PCR using a one-step qPCR kit (such as QuantiTech Probe PCR kit, Qiagen) and ChgA primers and probes (such as commercially available Taqman probe for mouse ChgA, Life Technologies).
as §1
Cells were then cultured with EGF, Noggin, and DAPT (END), as well as small molecules. After 2-3 days of differentiation, the cells lysed and ChgA expression was measured by qRT-PCR.
Small molecules were further validated using a 24-well plate culture and the differentiation system. […] The expression of markers of secretory lineage cells including goblet cells (Muc2), enteroendocrine cells (ChgA), and Paneth cells (Lyz1) were measured.

[4] = continuing culture of Islet-like Insulin expression cell colonies

## Nc1ncn([C@@H]2O[C@H](CO)[C@@H](O)[C@H]2O)c(=O)n1 [5-Aza, 5-Azacytidine]
[1]; dose response, day 5
  optimal concentration in inducing insulin-GFP expression: 0.5 to 1 µM
[1]
  percentage of Insulin-GFP+ cells: subsequently increased
[2]
  cell death in the culture: induced cell death

## Nc1ncn([C@H]2C[C@H](O)[C@@H](CO)O2)c(=O)n1 [5Aza, 5-aza-2′-deoxycytidine]
[3]; treatment extended from Stage 1 only to Stage 1 and Stage 2
  Insulin mRNA expression: slightly increased

## COc1cc2ncnc(Nc3ccc(NC(=O)c4ccccc4)cc3)c2cc1OC [Aurora Kinase Inhibitor II]
[3]; added in Stage 3
  Insulin mRNA expression: increase

## COC(=O)C1=C(C)NC(C)=C([N+](=O)[O-])C1c1ccccc1C(F)(F)F (centres unmarked) [BayK 8644]
[3]
  stages of addition giving highest activity: highest activity when added in Stages 1-3
[3]; added in Stage 1
  Insulin mRNA expression: increased
[3]; dose response
  concentration of highest activity / optimal concentration in promoting Insulin expression: 2 µM
[2]; [4]
  effect of removal: could be removed without much influence

## Cc1c[nH]c(-c2cnc(NCCNc3ccc(C#N)cn3)nc2-c2ccc(Cl)cc2Cl)n1 [CHIR99021, 6-[[2-[[4-(2,4-dichlorophenyl)-5-(5-methyl-1H-imidazol-2-yl)-2-pyrimidinyl]amino]ethyl]amino]-3-pyridinecarbonitrile]
[1]; added in Step 1 to increase Wnt activation, 5 days
  GFP expression: did not increase
[3]; Stage 3, combined with T3
  Insulin mRNA expression: further increased
[3]; added in Stage 3
  Insulin mRNA expression: greatly increased
Intestinal stem cells
  differentiation towards EEC (ChgA expression): did not further increase

## CC(C)Oc1ccc(-c2cnc3c(-c4ccnc5ccccc45)cnn3c2)cc1 [DMH-1]
[3]; added in Stages 2-3
  expression of Nkx6.1 and insulin: increased
[2]; [4]
  effect of removal: could be removed without much influence

## C=C[C@@]1(C)CC(=O)[C@]2(O)[C@@]3(C)[C@@H](O)CCC(C)(C)[C@@H]3[C@H](O)[C@H](OC(C)=O)[C@@]2(C)O1 [Forskolin]
[2]; 50-100 μM, added in Stage 3
  cell survival: improved cell survival
[2]; [4]
  cell survival: increased cell survival

## O=C(O)c1ccc(O)c2ncccc12 [IOX1]
[3]; used at 5-10 μM
  Insulin and Nkx6.1 expression: increased

## O=C(NC1CC1)c1cc(-c2cccs2)on1 [ISX-9, N-cyclopropyl-5-(2-thienyl)-3-isoxazolecarboxamide]
[1]; added to the combination, 5 days in culture
  number of GFP+ cells: further increase
[3]; dose response
  optimal dose in promoting Insulin and Nkx6.1 expression: 10 to 20 µM
Intestinal stem cells; relative to reference gene Hprt
  expression of functional EEC markers such as Gip, Gcg, Cck, Pyy: decreased
Intestinal stem cells
  ChgA expression of the differentiated cells: further increased

## Cc1ccc2nc(NC(=O)CSc3nc4c(c(=O)n3-c3ccccc3)SCC4)sc2c1 [IWP 2]
Intestinal stem cells
  differentiation towards EEC (ChgA expression): did not further increase

## CC(=O)N[C@@H](CS)C(=O)O [N-Acetylcysteine]
[3]; Stage 3, combined with T3
  Insulin mRNA expression: further increased
[3]; added in Stage 3
  Insulin mRNA expression: increased

## N[C@@H](Cc1cc(I)c(Oc2ccc(O)c(I)c2)c(I)c1)C(=O)O [T3, Triiodothyronine]
[3]; added in Stage 3
  Insulin mRNA expression: greatly increased

## O=C1O[C@H]([C@@H](O)CO)C(O)=C1O [Vitamin C]
[3]; added in Stage 2-3
  effect on conversion: beneficial effects
[3]; added in Stage 3
  Insulin mRNA expression: did not show such effect

## Cc1cc(-c2ccc(CC(=O)Nc3ccc(-c4cccnc4)cc3)cc2)ccn1 [Wnt-C59]
[1]
  percentage of Insulin-GFP+ cells: subsequently increased
[3]; addition delayed for 12 hours in Stage 2
  Insulin mRNA expression: increased
[3]; dose response (FIG. 52)
  optimal dose in promoting Insulin and Nkx6.1 expression: 5 µM
Intestinal stem cells; added in step 2
  Paneth cell marker Lyz1 expression: effectively decreased
Intestinal stem cells; added in step 2 of 2-step protocol
  ChgA expression: further increased
Intestinal stem cells; delayed addition for 12-24 hours in step 2
  ChgA expression: further increases
Intestinal stem cells
  ChgA expression of the differentiated cells: further increased

## EGF: epidermal growth factor
[2]; EGF removed in both steps
  dead cells in the lumen of the differentiated cell colony: more dead cells
Intestinal stem cells; 5 days
  EEC marker (ChgA, Gip, Gcg, CCK) expression on removing EGF from the media: further increased

## Exendin-4: factor identified to increase Insulin mRNA expression
[3]; added in Stage 3
  Insulin mRNA expression: increase

— US11021687B2, “Production of differentiated enteroendocrine cells and insulin producing cells” (Massachusetts Institute of Technology, priority 2016, dated 2021)
